ChEMBL document CHEMBL5528024, “Comprehensive and critical view on the anti-inflammatory and immunomodulatory role of natural phenolic antioxidants” (Eur J Med Chem, 2024)
≈ marks a conversion by molar mass, not a printed value. Each block holds one compound with its values, some of them ahead of it.

Experiments:
Mus musculus = test: Antidiabetic activity in six hour fasted type 2 diabetic C57BL/6 db/db mouse assessed as decrease in fasting blood glucose level at 250 mg/kg,po for 4 weeks by Glucose analyzer; assay type: functional; design: scale not given: the % may be the effect or the level left
[1] = Inhibition of Lipoxygenase (unknown origin); design: species or system Homo sapiens
Leishmania major = test: Antileishmanial activity against Leishmania major MHOM/IL/80/Friendlin assessed as reduction in parasite growth incubated for 24 hrs by resazurin dye based analysis; assay type: functional, organism-based
Alpha-synuclein = Alpha-synuclein (Homo sapiens, UniProt P37840); test: Inhibition of wild type full length recombinant alpha-synuclein (unknown origin) expressed in Escherichia coli by spectrophotometric analysis
Splenocyte [2] = test: Immunomodulatory activity in mouse splenocytes assessed as maximum effect in CD3+ T cell production at 4 microg/ml incubated for 24 hrs by flow cytometry relative to control; assay type: functional; conditions: dose 4 µg/ml
Splenocyte [3] = test: Immunomodulatory activity in mouse splenocytes assessed as maximum effect in CD4+ T cell production at 4 microg/ml incubated for 24 hrs by flow cytometry relative to control; assay type: functional; conditions: dose 4 µg/ml
Rattus norvegicus [4] = test: Anti-inflammatory activity against serotonin-induced paw edema in Sprague-Dawley rat assessed as inhibition of paw edema at 10 mg/kg, po measured after 5 hrs relative to control; assay type: functional; design: scale not given: the % may be the effect or the level left
Rattus norvegicus [5] = organism: Rattus norvegicus; test: Antioxidant activity in Vitamin E deficient rat model assessed as onset of ascorbate/Fe2+/ADP complex-initiated peroxidation delayed time by measuring onset of peroxidation (lag phase) at 0.25 mM by Thiobarbituric acid substance assay; assay type: functional
Rattus norvegicus [6] = organism: Rattus norvegicus; test: Antioxidant activity in Vitamin E deficient rat model assessed as onset of ascorbate/Fe2+/ADP complex-initiated peroxidation delayed time by measuring onset of peroxidation (lag phase) at 0.5 mM by Thiobarbituric acid substance assay; assay type: functional

SMILES: O=C(/C=C/c1ccc(O)c(O)c1)O[C@@H]1C[C@](O)(C(=O)O)C[C@@H](O)[C@H]1O [CHLOROGENIC ACID]
Activity (Mus musculus): 31%

IC50 [1]: 45.3 µM
SMILES: COc1cc(/C=C/C(=O)CC(=O)/C=C/c2ccc(O)c(OC)c2)ccc1O [CURCUMIN]

SMILES: O=c1oc2c(O)c(O)cc3c(=O)oc4c(O)c(O)cc1c4c23 [ELLAGIC ACID]
EC50 (Leishmania major): 0.9 µg/mL (≈ 2.98 µM)

IC50 (Alpha-synuclein): 13 µM
SMILES: COc1cc(/C=C/C(=O)O)ccc1O [FERULATE]

SMILES: O=c1c(O)c(-c2ccc(O)c(O)c2)oc2cc(O)ccc12 [FISETIN]
Activity (Splenocyte [2]): 39.62%
Activity (Splenocyte [3]): 28.92%

SMILES: O=C(O)c1cc(O)c(O)c(O)c1 [GALLIC ACID]
EC50 (Leishmania major): 5 µg/mL (≈ 29.4 µM)

SMILES: COc1ccc2c(c1)c(CC(=O)O)c(C)n2C(=O)c1ccc(Cl)cc1 [INDOMETHACIN]
Activity (Rattus norvegicus [4]): 34.2%

SMILES: O=c1c(O)c(-c2cc(O)c(O)c(O)c2)oc2cc(O)cc(O)c12 [MYRICETIN]
Time (Rattus norvegicus [5]): 12.6 min
Time (Rattus norvegicus [6]): 14.3 min
